In PubChem BioAssay (NCI) one finds GI50 and TGI data, which are given here for 30 compounds.

SMILES strings stand for the structures. “And” between values parts separate entries of the source, which are not always exact repeats. Identical values can stand only once.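 Test compounds were applied to cells in 96-well plates for 48 hours at 5 doses. The concentration for 50% growth inhibition is given as GI50. TGI: total growth inhibition.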

This experiment concerns MDA-MB-468 breast. Kind of experiment: DTP human tumour cell line panel, 48 h.
One may read the GI50 as the concentration that inhibits growth by half. In general, TGI refers to the concentration giving total growth inhibition. Turning to `O=C(c1ccc(F)c(F)c1Nc1ccc(I)cc1F)N1CC(O)([C@@H]2CCCCN2)C1`, the GI50 was 3.75 µM and 1.79 µM; the TGI was 16.2 µM and > 8.97 µM.

`Nc1c(C(=O)Nc2cccc(Br)c2)sc2nc3c(cc12)C(=O)CCC3`: the GI50 is 0.259 µM and the TGI was over 100 µM.

As to `Cc1nc2cnc(N)c(C#Cc3cncc(C(=O)Nc4ccc(CN5CCN(C)CC5)c(C(F)(F)F)c4)c3)c2nc1C`, the GI50 was 2.25 µM and the TGI amounted to 15.9 µM.

As for `COc1cc(CNCCCN2C(=O)c3ccc4c5c(ccc(c35)C2=O)C(=O)N(CCCNCc2cc(OC)c(OC)c(OC)c2)C4=O)cc(OC)c1OC`, the 50% growth inhibitory concentration (GI50) was 0.153 µM and the TGI is 0.406 µM.

As for `COc1cccc2c1C(=O)c1c(O)c3c(c(O)c1C2=O)CC(O)(/C(C)=N/NC(=O)CCC(=O)N/N=C(\C)C1(O)Cc2c(O)c4c(c(O)c2C(OC2CC(N)C(O)C(C)O2)C1)C(=O)c1c(OC)cccc1C4=O)CC3OC1CC(N)C(O)C(C)O1` (stereo not drawn), the concentration for 50% growth inhibition (GI50) was 0.101 µM and the TGI is 0.34 µM.

`COc1ccc2[nH]cc(-c3nc(-c4c[nH]c5ncccc45)cs3)c2c1`: the GI50 was 2.69 µM and the TGI is over 100 µM.

For `N#C/C=C(\c1ccc([N+](=O)[O-])cc1)n1nnc2cc(Cl)c(Cl)cc21`, the GI50 was 1.37 µM and the TGI came out at 3.33 µM.

Regarding `COc1cc(C2c3cc4c(cc3C(O)C(CO)C2CO)OCO4)cc(OC)c1OC` (stereo not drawn), the GI50 is 0.27 µM.

In the case of `Nc1nccc2c1ccn2-c1ccc(NC(=O)c2ccc(N3CCOCC3)c(C(F)(F)F)c2)cc1`, the GI50 was 2.16 µM and the total growth inhibition concentration (TGI) is 16.5 µM.

As for `CCOC(=O)C(=Cc1cccc(Cl)c1)C(=O)OCC`, the GI50 is 1.81 µM and the TGI came out at 3.85 µM.

In the case of `C=CC(=O)N1CCC(C2CCNc3c(C(N)=O)c(-c4ccc(Oc5ccccc5)cc4)nn32)CC1` (stereo not drawn), the GI50 is 0.752 µM and the TGI was determined as 8.52 µM.

For the compound `Cc1ccc(/C=C/c2c(C(=O)/C=C/c3ccc(C(F)(F)F)cc3)c(C)nc3ccccc23)cc1`, the GI50 is 1.84 µM and the TGI was 3.53 µM.

Turning to `COC12C=C/C(=C(/C(=O)OCc3ccncc3)C(=O)CCCCCCCCC3(OC)C=C/C(=C(/C(=O)OCc4ccncc4)C(=O)CCCCCCCC1)O3)O2`, the GI50 is 0.635 µM and the TGI stood at 2 µM.

As to `CC(C)=CCc1cc(O)cc2c1OC(C=C(C)C)C1=C2C(=O)C2=C(NCCS2(=O)=O)C1=O` (stereo not drawn), the GI50 is 2.54 µM and the total growth inhibition concentration (TGI) was 7.89 µM.

Take `CCCCCCNC(=O)c1nc(-c2ccccc2)oc1Cc1ccc(OP(=O)(O)O)cc1`: the GI50 was 14.3 µM and the concentration for total growth inhibition (TGI) was determined as 28.2 µM.

For the compound `CC(=O)c1cc2c(o1)C(=O)c1ccccc1C2=O`, the GI50 is 0.912 µM and 1.26 µM; the TGI is 2.54 µM and 2.8 µM.

For the compound `O=c1[nH]c(=O)n(C2CC(O)C(CO)O2)cc1CO` (stereo not drawn), the GI50 was over 100 µM and the concentration for total growth inhibition (TGI) is over 100 µM.

On to `O=c1cc2oc3cc(O)c(O)cc3c(-c3ccccc3O)c-2cc1O`, for which the GI50 is 12.6 µM and the concentration for total growth inhibition (TGI) is 42.6 µM.

As to `N=c1ccn2c(n1)OC1C(O)C(CO)OC12` (stereo not drawn), the GI50 was over 100 µM and the TGI is over 100 µM.

For `Cc1csc(Nc2nc(-c3cccc(Br)c3)nc(C(Cl)(Cl)Cl)n2)n1`, the GI50 is 0.354 µM and the concentration for total growth inhibition (TGI) was determined as 1.55 µM.

In the case of `O=C1c2c(c3c4cc(Br)ccc4[nH]c3c3ccc4ccccc4c23)C(=O)N1CCN1CCCCC1`, the GI50 is 1.62 µM and the concentration for total growth inhibition (TGI) came to 3.52 µM.

Turning to `O=C(c1c(F)ccc(NS(=O)(=O)N2CC[C@@H](F)C2)c1F)c1c[nH]c2ncc(-c3cnc(C4CC4)nc3)cc12`, the GI50 is 3.93 µM and 3.67 µM; the concentration for total growth inhibition (TGI) is > 10 µM and 27.9 µM.

Regarding `COc1cc(-c2nn(-c3cccc(NC(=O)Nc4ccc(Cl)c(Cl)c4)c3)cc2-c2ccncc2)ccc1Cl`, the GI50 is 0.567 µM and the TGI was 2.27 µM.

Turning to `CS(=O)(=O)CCCn1c(=O)c(Oc2ccc(F)cc2F)cc2cnc(NC3CCOCC3)nc21`, the GI50 is over 25 µM and the concentration for total growth inhibition (TGI) is over 25 µM.

As to `C[C@H]1Oc2cc(cnc2N)-c2c(nn(C)c2C#N)CN(C)C(=O)c2ccc(F)cc21`, the GI50 is 30.8 µM and the TGI is over 100 µM.

For the compound `CC1(C)OCCn2c1nc1c(N3CCOCC3)nc(-c3cnc(N)nc3)nc12`, the GI50 was 0.339 µM and the TGI stood at 2.6 µM.

As to `Cn1cnc([N+](=O)[O-])c1S(=O)(=O)Oc1ccccc1`, the GI50 is 1.95 µM and the TGI is 4.68 µM.

As for `COc1ccncc1C#Cc1cncc(C(=O)Nc2ccc(CN3CCN(C)CC3)c(C(F)(F)F)c2)c1`, the GI50 is 24.7 µM and the TGI was over 100 µM.

As for `Cn1cc(C2=C(c3cn(C)c4cc(C(N)=O)ccc34)C(=O)NC2=O)c2ccccc21`, the GI50 was 1.18 µM and the TGI was determined as 15.9 µM.

`N#Cc1c(-c2ccc(F)cc2)c(-c2ccc(F)cc2)nn(CCO)c1=O` gave a TGI of over 100 µM.
